The numbers were not newly measured in patent US6268341A, “Expression of urokinase plasminogen activator inhibitors” (Chiron Corporation, priority 1998, dated 2001), which cites them from elsewhere.

Where no end group is shown, it is not given here. Fuc = fucose (fucosylation)

Data set [1] relates to osteosarcoma cell line, SaOS-2. The following applies: Rabbani et al.
For a further data set, the target named is uPAR (Homo sapiens, UniProt Q03405). The following applies: Appella et al., J Biol Chem 1987.
Sequence of uPAR (Q03405 23-335): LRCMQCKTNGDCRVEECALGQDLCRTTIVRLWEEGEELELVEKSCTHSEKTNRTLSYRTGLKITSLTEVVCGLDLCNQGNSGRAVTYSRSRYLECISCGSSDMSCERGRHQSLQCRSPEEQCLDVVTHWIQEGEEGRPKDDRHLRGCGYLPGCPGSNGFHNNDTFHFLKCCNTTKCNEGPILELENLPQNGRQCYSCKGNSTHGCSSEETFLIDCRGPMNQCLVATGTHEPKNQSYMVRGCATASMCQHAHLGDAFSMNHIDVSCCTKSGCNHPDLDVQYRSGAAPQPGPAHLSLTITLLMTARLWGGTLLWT

On to “fucosylated EGF-like domain: fucosylated EGF-like domain (uPA4-43, produced by cleavage from prouPA) (LHQVPSNCDCLNGGT(Fuc)CVSNKYFSNIHWCNCPKKFGGQHCE; cysteine pairing not given here; UniProt P00749 24-63, looked up, fragment)”, for which the mitogenic activity entry in data set [1] is “mitogenic”.
Regarding “uPA12-32: critical receptor-binding domain alone, residues 12-32 of uPA (DCLNGGTCVSNKYFSNIHWCN; UniProt P00749 32-52, looked up, fragment)”, the “affinity relative to intact ATF (fold less)” value in the data set with uPAR is given as “about 100 fold”.
